This note sets out measurements from patent US20170095512A1, “METHODS OF INDUCING MYELINATION AND MATURATION OF OLIGODENDROCYTES” (KADIMASTEM LTD., priority 2014, published 2017).

This experiment deals with glial progenitor cells derived from human ES cells (Olig2 positive cells). Put plainly: hOPC differentiation assay, Olig2 positive cells (immunostaining, high content screening). The format is cell-based. As to conditions: PDGF 20 ng/ml added during LDN-193189 dose-response assay, 21 days. Here is the method: In order to initiate differentiation 20,000 GPCs were seeded in each well of Matrigel coated plates of 96 wells, or on PolyD-Lysine/laminin (PDL/lam)-coated 96 well plates. Cells were grown in GM media for two to three days. Then GM was replaced by differentiation medium without growth factors, (DMEM/F12, 1% B27, 0.5% N2, Vitamin C (Sigma, 50 ug/ml). Differentiation medium was supplemented with the following tested compounds: […] All media were replaced every other day. The oligodendrocyte lineage cells were characterized by the expression of a transcription factor olig2. The rabbit polyclonal AB anti olig2 (Millipore cat AB9610) was added to PFA fixed cells. […] The fixed cells were washed three times in blocking solution, olig2 diluted 1/500, in blocking solution, was added for 1 hour. The fixed cells were washed with PBS 3 times and goat anti rabbit Alexa Fluor 568 1/500 in PBS was added for 45 minutes. The fixed cells were washed three times. ArrayScan VTI HCS reader system (Cellomis, Thermo-scientific) was used for scanning at least 20 fields for each tested well under 10× objective in both assays (differentiation and myelination). Cellomics Neural profiling bio-application was used for processing and analyzing the images. For differentiation assay, the following parameters were tested: number and percentage of O4+ cells, number of processes, processes length and number of branching points. For myelination assay, the same morphological parameters were tested and in addition: areas of myelinated axons in pixels (MBP&NF overlap area) and Number of myelinated regions (MBP&NF overlap count) were also analyzed. Modifications in the Neuro-profiling bio-application were conducted for this specific purpose. T-test analysis was used to compare between treatments. The 4-parameter Hill-Slope curve fittings were generated by GraphPad Prism software using least squares fitting method and EC50 values were calculated. […] The cells at passage five were cultured for three days with GM on 96 well plates and after fixation, cells were reacted with anti-olig2 Ab, and olig2 positive cells and nuclei were scanned in the Thermo Scientific™ ArrayScan™ XTI High Content Analysis (HCA) Reader and counted with the neural profiling program. On the other hand the cells surface antigens O4 and PDGFRa were detected on dissociated cells after fixation and reaction with O4 Ab conjugated to APC, anti PDGFRa PE, as well as A2B5 PE all obtained from BD. Flow cytometry was conducted in BD FACS Canto II. […] Time points used for analysis are 21, 28, 35 and 42 days of differentiation, for each time point 20 fields were analyzed. […] In this experiment, cells at passage 4 were pretreated in differentiation medium with Noggin for 14 days, and split before seeding on 96 well plates.

As to PDGF: human recombinant PDGFAA (R&D), the “number of olig2 positive cells on addition of PDGF” value is “increases the number of olig2 positive cells about two folds”.
